Test results reported in US20250122221A1 (NANJING ZAIMING PHARMACEUTICAL CO., LTD., priority 2022, published 2025).
Read-outs that look alike come from different tables or passages of the source.

Legend:
[1] = molecular target: N-terminal active peptide segment (MI-N899) of POLQ with ATPase activity (Homo sapiens (Human), UniProt O75417); test: POLQ enzyme activity inhibition experiment (ATPase, NADH-coupled, OD 340 nm); format: biochemical; conditions: 100 nM POLQ (N), 100 μM ATP, 300 nM dT50
DLD-1 BRCA2 (−/−) cells = test: Inhibition of tumour cell proliferation, 7 days, CTG; format: cell-based; conditions: Homo sapiens, read-out: DLD-1 BRCA2 (−/−) IC50
Protocol: (§1) Brief introduction to the experimental principle: The compounds were co-incubated with tumour cells for 7 days, and then a CTG kit from Promega Inc was used to quantify ATP in viable cells, thus reflecting the effect of the compounds on tumour cell proliferation.
(§2) Experimental method: DLD-1 parental cells or DLD-1 BRCA2 (−/−) cells were diluted with RPMI 1640 medium containing 10% FBS, and then added to a 96-well plate (90 μL/well), with the number of cells being 600 cells/well or 1200 cells/well, respectively, and cultured overnight in a 37° C., 5% CO2 incubator. The compounds to be tested were diluted to different concentrations in dimethyl sulfoxide (DMSO), and then added to a 96-well plate. The final concentration of the compounds in the reaction system started from 25 μM, and was subjected to 4-fold gradient dilution. The concentration range of the compounds was from 25 μM to 0.0004 μM, and the final concentration of DMSO was 0.25% v/v. After 7 days of incubation, 50 μL/well CTG was added, and the mixture was incubated at room temperature for 10 minutes. Subsequently, the luminescence (Lum) signal value was read with an Envision microplate reader, and the inhibition rate and half inhibitory concentration (IC50) were calculated.
(§3) The inhibition rate was calculated, and XLfit software was used to perform fitting to obtain IC50 of the compounds.
(§4) In the experiment, a blank well and a DMSO well were set up, respectively.
(§5) Inhibition rate=100*(Lummax−Lumcompound)/(Lummax−Lummin)%, • where Lummax refers to the luminescence signal value of the well containing cells and 0.25% v/v DMSO; Lumcompound refers to the luminescence signal value of the well containing the compound and cells; and Lummin refers to the luminescence signal value of the well containing the medium and 0.25% v/v DMSO.

DLD-1 parental cells = test: as above; format: cell-based; conditions: Homo sapiens, read-out: DLD-1 parental cell IC50
Protocol: as §1, §2, §3, §4, §5

[2] = 168 h, DLD-1 BRCA2 (−/−) cells, 7 days of incubation, CTG
[3] = 168 h, DLD-1 parental cells, 7 days of incubation, CTG

Sequence of N-terminal active peptide segment (MI-N899) of POLQ with ATPase activity (O75417 1-899 limits assumed): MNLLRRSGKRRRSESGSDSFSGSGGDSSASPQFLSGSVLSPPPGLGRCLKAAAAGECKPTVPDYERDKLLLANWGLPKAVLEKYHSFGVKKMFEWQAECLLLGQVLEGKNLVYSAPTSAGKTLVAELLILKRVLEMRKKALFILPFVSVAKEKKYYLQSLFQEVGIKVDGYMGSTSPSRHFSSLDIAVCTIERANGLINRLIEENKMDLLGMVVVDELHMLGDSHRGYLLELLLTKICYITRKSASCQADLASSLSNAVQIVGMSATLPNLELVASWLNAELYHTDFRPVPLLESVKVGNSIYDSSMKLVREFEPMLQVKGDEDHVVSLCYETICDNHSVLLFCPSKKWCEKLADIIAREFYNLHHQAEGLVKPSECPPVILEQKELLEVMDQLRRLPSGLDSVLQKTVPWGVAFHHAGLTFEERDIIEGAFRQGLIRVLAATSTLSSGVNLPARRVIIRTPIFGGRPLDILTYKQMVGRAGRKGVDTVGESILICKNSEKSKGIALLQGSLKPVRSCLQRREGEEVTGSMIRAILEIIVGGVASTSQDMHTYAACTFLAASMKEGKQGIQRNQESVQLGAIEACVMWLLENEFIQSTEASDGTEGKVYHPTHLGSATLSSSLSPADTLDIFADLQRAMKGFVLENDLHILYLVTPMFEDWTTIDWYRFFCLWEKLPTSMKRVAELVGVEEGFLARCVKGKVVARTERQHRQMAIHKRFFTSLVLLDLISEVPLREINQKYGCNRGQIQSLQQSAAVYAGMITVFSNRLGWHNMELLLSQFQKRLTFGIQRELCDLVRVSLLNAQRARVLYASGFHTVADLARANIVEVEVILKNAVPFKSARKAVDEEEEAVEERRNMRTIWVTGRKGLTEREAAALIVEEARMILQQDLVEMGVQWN

COc1ccccc1-c1cnccc1C(=O)Nc1nc2ncc(-c3ccc(C#N)cc3)nc2s1 [Compound 9, N-(6-(4-cyanophenyl)thiazolo[4,5-b]pyrazin-2-yl)-3-(2-methoxyphenyl)pyridine-4-carboxamide]
IC50 [1]: < 100 nM | IC50 (DLD-1 BRCA2 (−/−) cells; [2]): < 200 nM | IC50 (DLD-1 parental cells; [3]): > 10000 nM

COc1cnc(C)cc1-c1cc(C)ccc1C(=O)Nc1nc2ncc(-c3ccc(C#N)cc3)nc2s1 [Compound 92, N-(6-(4-cyanophenyl)thiazolo[4,5-b]pyrazin-2-yl)-2-(5-methoxy-2-methylpyridine-4-yl)-4-methylbenzamide]
IC50 [1]: < 100 nM | IC50 (DLD-1 BRCA2 (−/−) cells; [2]): < 200 nM | IC50 (DLD-1 parental cells; [3]): > 10000 nM

COc1cccc(F)c1-c1cnccc1C(=O)Nc1nc2ncc(-c3ccc(C#N)cc3)nc2s1 [Compound 34, N-(6-(4-cyanophenyl)thiazolo[4,5-b]pyrazin-2-yl)-3-(2-fluoro-6-methoxyphenyl)pyridine-4-carboxamide]
IC50 [1]: < 100 nM | IC50 (DLD-1 BRCA2 (−/−) cells; [2]): < 200 nM | IC50 (DLD-1 parental cells; [3]): > 10000 nM

COc1cnc(C#N)cc1-c1cc(C)ncc1C(=O)Nc1nc2ncc(-c3ccc(Cl)cc3)nc2s1 [Compound 63, N-(6-(4-chlorophenyl)thiazolo[4,5-b]pyrazin-2-yl)-2′-cyano-5′-methoxy-6-methyl-[4,4′-bipyridine]-3-carboxamide]
IC50 [1]: < 100 nM | IC50 (DLD-1 BRCA2 (−/−) cells; [2]): 200 to 500 nM | IC50 (DLD-1 parental cells; [3]): > 10000 nM

COc1cnc(C)cc1-c1cc(C)ncc1C(=O)Nc1nc2ncc(-c3ccc(OC(F)F)cn3)nc2s1 [Compound 25, N-(6-(5-(difluoromethoxy)pyridin-2-yl)thiazolo[4,5-b]pyrazin-2-yl)-5′-methoxy-2′,6-dimethyl-[4,4′-bipyridine]-3-carboxamide]
IC50 [1]: < 100 nM | IC50 (DLD-1 BRCA2 (−/−) cells; [2]): < 200 nM | IC50 (DLD-1 parental cells; [3]): > 10000 nM

COc1cnc(C2CC2)cc1-c1cc(C)ncc1C(=O)Nc1nc2ncc(-c3ccc(C4CC4)cc3)nc2s1 [Compound 83, 2′-cyclopropyl-N-(6-(4-cyclopropylphenyl)thiazolo[4,5-b]pyrazin-2-yl)-5′-methoxy-6-methyl-[4,4′-bipyridine]-3-carboxamide]
IC50 [1]: < 100 nM | IC50 (DLD-1 BRCA2 (−/−) cells; [2]): < 200 nM | IC50 (DLD-1 parental cells; [3]): > 10000 nM

COc1ccc(Cl)cc1-c1cc(C)ncc1C(=O)Nc1nc2ncc(-c3ccc(OC(F)F)cc3)nc2s1 [Compound 80, 4-(5-chloro-2-methoxyphenyl)-N-(6-(4-(difluoromethoxy)phenyl)thiazolo[4,5-b]pyrazin-2-yl)-6-methylpyridine-3-carboxamide]
IC50 [1]: < 100 nM | IC50 (DLD-1 BRCA2 (−/−) cells; [2]): < 200 nM | IC50 (DLD-1 parental cells; [3]): > 10000 nM

COc1cnc(C(F)(F)F)cc1-c1cc(C)ncc1C(=O)Nc1nc2ncc(-c3ccc(C#N)cc3)nc2s1 [Compound 73, N-(6-(4-cyanophenyl)thiazolo[4,5-b]pyrazin-2-yl)-5′-methoxy-6-methyl-2′-(trifluoromethyl)-[4,4′-bipyridine]-3-carboxamide]
IC50 [1]: < 100 nM | IC50 (DLD-1 BRCA2 (−/−) cells; [2]): < 200 nM | IC50 (DLD-1 parental cells; [3]): > 10000 nM

COc1ccc(C#N)cc1-c1cc(C)ncc1C(=O)Nc1nc2ncc(-c3ccc(Cl)cn3)nc2s1 [Compound 62, N-(6-(5-chloropyridin-2-yl)thiazolo[4,5-b]pyrazin-2-yl)-4-(5-cyano-2-methoxyphenyl)-6-methylpyridine-3-carboxamide]
IC50 [1]: < 100 nM | IC50 (DLD-1 BRCA2 (−/−) cells; [2]): < 200 nM | IC50 (DLD-1 parental cells; [3]): > 10000 nM

COc1ccc(Cl)cc1-c1cc(C)ncc1C(=O)Nc1nc2ncc(-c3ccc(C4CC4)cc3)nc2s1 [Compound 79, 4-(5-chloro-2-methoxyphenyl)-N-(6-(4-cyclopropylphenyl)thiazolo[4,5-b]pyrazin-2-yl)-6-methylpyridine-3-carboxamide]
IC50 [1]: < 100 nM | IC50 (DLD-1 BRCA2 (−/−) cells; [2]): < 200 nM | IC50 (DLD-1 parental cells; [3]): > 10000 nM

COc1cnc(Cl)cc1-c1cc(C)ncc1C(=O)Nc1nc2ncc(-c3ccc(C#N)cc3)nc2s1 [Compound 20, 2′-chloro-N-(6-(4-cyanophenyl)thiazolo[4,5-b]pyrazin-2-yl)-5′-methoxy-6-methyl-[4,4′-bipyridine]-3-carboxamide]
IC50 [1]: < 100 nM | IC50 (DLD-1 BRCA2 (−/−) cells; [2]): < 200 nM | IC50 (DLD-1 parental cells; [3]): > 10000 nM

COc1ccccc1-n1cncc1C(=O)Nc1nc2ncc(-c3ccc(C#N)cc3)nc2s1 [Compound 32, N-(6-(4-cyanophenyl)thiazolo[4,5-b]pyrazin-2-yl)-1-(2-methoxyphenyl)-1H-imidazole-5-carboxamide]
IC50 [1]: < 100 nM | IC50 (DLD-1 BRCA2 (−/−) cells; [2]): 200 to 500 nM | IC50 (DLD-1 parental cells; [3]): > 10000 nM

C#Cc1ccccc1-c1cnccc1C(=O)Nc1nc2ncc(-c3ccc(C#N)cc3)nc2s1 [Compound 30, N-(6-(4-cyanophenyl)thiazolo[4,5-b]pyrazin-2-yl)-3-(2-ethynylphenyl)pyridine-4-carboxamide]
IC50 [1]: < 100 nM | IC50 (DLD-1 BRCA2 (−/−) cells; DLD-1, 168 h): < 200 nM | IC50 (DLD-1 parental cells; DLD-1, 168 h): > 10000 nM

Cc1cc(-c2cc(Cl)ccc2Cl)c(C(=O)Nc2nc3ncc(-c4ccc(C#N)cc4)nc3s2)cn1 [Compound 87, N-(6-(4-cyanophenyl)thiazolo[4,5-b]pyrazin-2-yl)-4-(2,5-dichlorophenyl)-6-methylpyridine-3-carboxamide]
IC50 [1]: < 100 nM | IC50 (DLD-1 BRCA2 (−/−) cells; [2]): < 200 nM | IC50 (DLD-1 parental cells; [3]): > 10000 nM

COc1ccc(C#N)cc1-c1cc(C)ncc1C(=O)Nc1nc2ncc(-c3ccc(C#N)cc3)nc2s1 [Compound 58, 4-(5-cyano-2-methoxyphenyl)-N-(6-(4-cyanophenyl)thiazolo [4,5-b]pyrazin-2-yl)-6-methylpyridine-3-carboxamide]
IC50 [1]: < 100 nM | IC50 (DLD-1 BRCA2 (−/−) cells; [2]): < 200 nM | IC50 (DLD-1 parental cells; [3]): > 10000 nM

COc1ccc(Cl)cc1-c1cc(C)ccc1C(=O)Nc1nc2ncc(-c3ccc(C#N)cc3)nc2s1 [Compound 93, 5′-chloro-N-(6-(4-cyanophenyl)thiazolo[4,5-b]pyrazin-2-yl)-2′-methoxy-5-methyl-[1,1′-biphenyl]-2-carboxamide]
IC50 [1]: < 100 nM | IC50 (DLD-1 BRCA2 (−/−) cells; [2]): < 200 nM | IC50 (DLD-1 parental cells; [3]): > 10000 nM

COc1ccc(Cl)cc1-c1cc(C)ncc1C(=O)Nc1nc2ncc(-c3ccc(C(C)(C)O)cn3)nc2s1 [Compound 78, 4-(5-chloro-2-methoxyphenyl)-N-(6-(5-(2-hydroxyprop-2-yl)pyridin-2-yl)thiazolo[4,5-b]pyrazin-2-yl)-6-methylpyridine-3-carboxamide]
IC50 [1]: < 100 nM | IC50 (DLD-1 BRCA2 (−/−) cells; [2]): < 200 nM | IC50 (DLD-1 parental cells; [3]): > 10000 nM

COc1cnc(C2CC2)cc1-c1cc(C)ncc1C(=O)Nc1nc2ncc(-c3ccc(C#N)cc3)nc2s1 [Compound 72, N-(6-(4-cyanophenyl)thiazolo[4,5-b]pyrazin-2-yl)-2′-cyclopropyl-5′-methoxy-6-methyl-[4,4′-bipyridine]-3-carboxamide]
IC50 [1]: < 100 nM | IC50 (DLD-1 BRCA2 (−/−) cells; [2]): < 200 nM | IC50 (DLD-1 parental cells; [3]): > 10000 nM
